Tests used:
Format in all cases: cell-based, canine
W&Wlis cells [1] = experiment: Structural modifications of the mitochondrion (pDsRed2-mito, confocal microscopy); details: linamarin 500 μg/ml from 48 hours; glucose oxidase 5 mEU/ml; combination after 24 hours
Method: For the purpose of studying the mitochondrial dynamics occurring as a result of the oxidative stress caused by the activity of the claimed system, W&Wlis cells were stably transfected with the plasmid pdsRed2-mito (Clontech) containing the gene of the one red fluorescent protein carried by a transport signal peptide to the mitochondrion. This allowed viewing the mitochondria of cells treated with linamarin and glucose oxidase by fluorescence microscopy. […] This effect starts to be observed 48 hours after treatment with linamarin (FIG. 1B) and becomes more pronounced after 72 hours, a slight swelling of the fragments (FIG. 1C) being observed.
To study the structural modifications of the mitochondrion during therapy, the W&W and W&Wlis cells were transfected with the plasmid pDsRed2-mito (Clontech, BD Bioscience) containing the gene of a red fluorescent protein which is expressed exclusively in mitochondria. The transfection was performed similarly to the previous section and clones were selected by resistance to neomycin (0.75 and 1.5 mg/ml respectively). The cells from stable expression clones of the protein were seeded in multiwell plates on cover slips (2.5×10^4) and were treated with linamarin (50, 200 or 500 μg/ml) and glucose oxidase (5 mEU/ml). After the suitable incubation time for each experiment (24, 48 or 72 hours) elapsed, the cells were fixed with 4% paraformaldehyde. […]

W&Wlis cells [2] = experiment: Measurement of intracellular ATP; details: linamarin (500 μg/ml) and/or glucose oxidase (5 mEU/ml), over time, versus untreated cells
Method: The levels of intracellular energy in the form of ATP decrease when a blockage of the mitochondrial electron transport chain occurs since it is the essential source of obtaining energy of the cells. […] This effect is due to the fact that the maximum H2O2 production by glucose oxidase occurs at short times because the cells have the ability of detoxifying the peroxide and due to the fact that glucose oxidase is inactivated over time by the serum proteins.
10^5 W&Wlis cells were seeded in test tubes with a screw-on cap and flat side (Nunc). After 24 hours, the medium was changed, adding linamarin (500 μg/ml) and glucose oxidase (5 mEU/ml) where appropriate. After 4, 8, 12, 24, 48 or 72 hours, the cells were centrifuged and processed following the instructions of the ATP Bioluminescence Assay Kit CLS II, of Roche Applied Science. The luminescence was analyzed with a Monolight 2010 luminometer (Analytical Luminescence Laboratory, San Diego) and expressed in relative light units (RLU).

W&Wlis cells [3] = experiment: Analysis of the type of death by flow cytometry (annexin V-FITC/propidium iodide); design: Necrosis / Apoptosis: unit not given here; details: Without GO
Method: The annexin V-FITC and propidium iodide assay was performed in parallel by flow cytometry. The pattern of death of the system was analyzed when adding 5 mEU/ml of glucose oxidase and the combined therapy (5 mEU/ml of GO and 500 μg/ml of linamarin) at 48 hours, followed by the control of untreated cells and of the cells incubated with 500 μg/ml of linamarin at 96 hours. Furthermore, another group of cells was subjected to the same conditions except 10 mM of N-acetyl cysteine (NAC) were added. The cells treated with the combined therapy were subsequently studied at 48 hours in the absence and presence of 100 μM of Z-VAD-fmk, followed by the control of treatment of the cells with UV in the same conditions. Finally, the cells treated with the combined therapy were shown at 48 hours in the absence and presence of 300 μM of 1,5-isoquinolinediol (DIQ), observing that the pattern of death is not modified when PARP-1 is inhibited (FIG. 4).
10^5 W&Wlis cells were seeded in test tubes with a screw-on cap and flat side (Nunc). After 24 hours, different amounts of linamarin (50, 200 or 500 μg/ml) and glucose oxidase (5 mEU/ml) were added in the specified cases. In the appropriate assays, the medium was supplemented with N-acetyl cysteine (10 mM), 1,5-isoquinolinediol (300 μM) or Z-VAD-fmk (100 μM). […] They were centrifuged for 5 minutes at 1200 rpm and the cell precipitate was washed first with PBS and then with binding buffer (0.1 M Hepes/NaOH pH 7.4, 1.4 M NaCl and 25 mM CaCl2). The cells were again precipitated and resuspended in 100 μl of binding buffer supplemented with 5 μl of annexin V-FITC and 2.5 μg/ml of propidium iodide. The samples were incubated for 15 minutes in the dark. Data acquisition and analysis was carried out by means of a FACSCalibur flow cytometer (DB Biosciences) with the Cell Quest program.

W&Wlis cells [4] = experiment: Determination of the extracellular peroxide concentration; details: 48 hours; 0.5 mg/ml of linamarin and/or 5 mEU/ml of glucose oxidase; control approximately 20 μM
Method: The H2O2 levels (FIG. 3B) produced extracellularly in the combined therapy were further studied in the invention. To do so, the amount of H2O2 present in the culture medium of W&Wlis cells at 48 hours in a treatment with 0.5 mg/ml of linamarin, in the presence of 5 mEU/ml of glucose oxidase or in the combination of both treatments, was analyzed although positive results were also obtained using other concentrations.
The samples to be analyzed were diluted in 1 ml of 0.1 M phosphate buffer pH 7.4. Then 3.7 EU/ml of peroxidase (Sigma-Aldrich, St. Louis, USA) and 0.1 mg/ml of ortho-dianisidine (Sigma-Aldrich, St. Louis, USA) were added. The samples were incubated at room temperature for 30 minutes and absorbances at 436 nm were determined. The H2O2 concentration was obtained by interpolation of the data obtained in a standard line performed with increasing concentrations of H2O2.

[5] = 50 μg lin, 96 hours, NAC (10 mM)
[6] = 200 μg lin, 96 hours, NAC (10 mM)
[7] = 500 μg lin, 96 hours, NAC (10 mM)
[8] = Table 4, 50 μg lin, 72 hours, Z-VAD-fmk (100 μM)
[9] = Table 4, 50 μg lin, 72 hours, control (no Z-VAD-fmk)
[10] = Table 4, 200 μg lin, 72 hours, Z-VAD-fmk (100 μM)
[11] = Table 4, 200 μg lin, 72 hours, control (no Z-VAD-fmk)
[12] = Table 4, 500 μg lin, 72 hours, Z-VAD-fmk (100 μM)
[13] = Table 4, 500 μg lin, 72 hours, control (no Z-VAD-fmk)

For `CC(C)(C#N)O[C@@H]1O[C@H](CO)[C@@H](O)[C@H](O)[C@H]1O` [lin, 2-hydroxy-isobutyronitrile-β-D-glucopyranoside], the mitochondrial pattern (W&Wlis cells [1]) was “dotted pattern”, the “intracellular ATP levels” value (W&Wlis cells [2]) was “progressive and rapid depletion of ATP which becomes almost complete after 48 hours” and the Apoptosis (W&Wlis cells [3]; 50 μg lin, 48 h) was 3.71. The Necrosis (W&Wlis cells [3]; 50 μg lin, 48 h) was 2.96, the Apoptosis (W&Wlis cells [3]; 50 μg lin, 72 h) was 3.74 and the Necrosis (W&Wlis cells [3]; 50 μg lin, 72 h) was 5.28. The Apoptosis (W&Wlis cells [3]; 50 μg lin, 96 h) was 20.83, the Necrosis (W&Wlis cells [3]; 50 μg lin, 96 h) was 11.33 and the Apoptosis (W&Wlis cells [3]; [5]) was 6.44. For the same compound, the Necrosis (W&Wlis cells [3]; [5]) was 51.89, the Apoptosis (W&Wlis cells [3]; 200 μg lin, 48 h) was 3.84 and the Necrosis (W&Wlis cells [3]; 200 μg lin, 48 h) was 5.68. The Apoptosis (W&Wlis cells [3]; 200 μg lin, 72 h) was 4.62, the Necrosis (W&Wlis cells [3]; 200 μg lin, 72 h) was 9.34 and the Apoptosis (W&Wlis cells [3]; 200 μg lin, 96 h) was 14.31. The Necrosis (W&Wlis cells [3]; 200 μg lin, 96 h) was 45.15, the Apoptosis (W&Wlis cells [3]; [6]) was 21.58 and the Necrosis (W&Wlis cells [3]; [6]) was 29.18. It also gave an Apoptosis (W&Wlis cells [3]; 500 μg lin, 48 h) of 5.17, a Necrosis (W&Wlis cells [3]; 500 μg lin, 48 h) of 5.54 and an Apoptosis (W&Wlis cells [3]; 500 μg lin, 72 h) of 6.25. For the same compound, the Necrosis (W&Wlis cells [3]; 500 μg lin, 72 h) was 6.91, the Apoptosis (W&Wlis cells [3]; 500 μg lin, 96 h) was 18.99 and the Necrosis (W&Wlis cells [3]; 500 μg lin, 96 h) was 24.98. It also gave an Apoptosis (W&Wlis cells [3]; [7]) of 18.53, a Necrosis (W&Wlis cells [3]; [7]) of 19.89 and an Apoptosis (W&Wlis cells [3]; [8]) of 3.48. For the same compound, the Necrosis (W&Wlis cells [3]; [8]) was 15.01, the Apoptosis (W&Wlis cells [3]; [9]) was 1.36 and the Necrosis (W&Wlis cells [3]; [9]) was 14.72. It also gave an Apoptosis (W&Wlis cells [3]; [10]) of 2.56, a Necrosis (W&Wlis cells [3]; [10]) of 13.07 and an Apoptosis (W&Wlis cells [3]; [11]) of 3.30. The Necrosis (W&Wlis cells [3]; [11]) was 30.13, the Apoptosis (W&Wlis cells [3]; [12]) was 6.08 and the Necrosis (W&Wlis cells [3]; [12]) was 13.24. For the same compound, the Apoptosis (W&Wlis cells [3]; [13]) was 9.02, the Necrosis (W&Wlis cells [3]; [13]) was 18.04 and the “extracellular H2O2 concentration in the culture medium” value (W&Wlis cells [4]) was “did not cause significant variations”.

Reference: patent US20100028366A1, “SYNERGISTIC EFFECT BETWEEN A […] AND ANOTHER OXIDATIVE INDUCING SYSTEM FOR TREATING TUMORS” (priority 2005, published 2010)
